Experimental data taken from patent US20060004029A1, “Nitrogen-containing aromatic derivatives” (priority 2003, published 2006).

Columns and labels:
VEGFR2 = molecular target: T1, VEGFR2 (Homo sapiens, UniProt P35968); experiment: Inhibition against receptor tyrosine kinase activity (HTRF), VEGFR2; assay type: biochemical; settings: His6-VEGFR2 cytoplasmic domain, biotin-poly(GT), HTRF; read-out: VEGFR2 kinase IC50
T1 construct: coding for the cytoplasmic domain, beginning with lysine 791 and including the termination codon; made in house; host or cells: Sf9 insect cells, baculovirus (pFastBacHis)
Experimental: This assay is used to determine inhibition of a test substance on tyrosine kinase activity. […] Expression in an appropriate expression system can produce a polypeptide with tyrosine kinase activity. […] The recombinant construct was transfected into insect cells (Spondoptea frugiperda9 (Sf9)) to prepare a recombinant Baculovirus.
For expression of the VEGFR2 tyrosine kinase, Sf9 cells were infected with the VEGFR2 recombinant virus and collected after 48 hours. The collected cells were rinsed with ice-cooled phosphate buffered saline (PBS) and then resuspended using 20 ml of ice-cooled Lysis Buffer (50 mM Tris-HCl (pH 8.5), 5 mM 2-mercaptoethanol, 100 mM KCl, 1 mM phenylmethylsulfonyl fluoride, 1% (v/v) NP-40) per 1.5×10^8 cells. The suspension was centrifuged at 12,000 rpm for 30 minutes at 4° C. and the supernatant was obtained. The supernatant was added to a Ni-NTA agarose column (3 ml, purchased from Qiagen) equilibrated with Buffer A {20 mM Tris-HCl (pH 8.5), 5 mM 2-mercaptoethanol, 500 mM KCl, 20 mM imidazole, 10% (v/v) glycerol}. The column was washed with 30 ml of Buffer A, and then with 6 ml of Buffer B {20 mM Tris-HCl (pH 8.5), 5 mM 2-mercaptoethanol, 1M KCl, 10% (v/v) glycerol}, and finally with 6 ml of Buffer A. After washing, it was eluted with 6 ml of Buffer C {20 mM Tris-HCl (pH 8.5), 5 mM 2-mercaptoethanol, 100 mM KCl, 100 mM imidazole, 10% (v/v) glycerol}. The eluate was placed on a dialysis membrane (purchased from Spectrum Laboratories) and dialyzed with a dialysis buffer {20 mM Tris-HCl (pH 7.5), 10% (v/v) glycerol, 1 mM dithiothreitol, 0.1 mM Na3VO4, 0.1 mM EGTA}. […] Using the same method for the cytoplasmic domains of FGFR1, PDGFRβ and HGFR yielded respective recombinant proteins fused with 6 histidine residues at the N-terminal (His6-FGFR1, His6-PDGFRβ or His6-HGFR).
The tyrosine kinase reaction was conducted as follows. […] Next, 10 μl of 4 μM ATP (diluted with distilled water) was added prior to incubation at 30° C. for 10 minutes, and then 10 μl of 500 mM EDTA (pH 8.0) was added.
The tyrosine phosphorylation rate for the biotin-poly(GT) was expressed as the delta F % value as described in the HTRF Standard Experiment Methods text by CIS Diagnostics Co. The delta F % value in the presence of the test substance was determined as a ratio (%) with the delta F % value with addition of His6-VEGFR2 in the absence of the test substance defined as 100% and the delta F % value in the absence of both the test substance and His6-VEGFR2 defined as 0%.

FGFR1 = molecular target: T2, FGFR1 (Homo sapiens, UniProt P11362); experiment: Inhibition against receptor tyrosine kinase activity (HTRF), FGFR1; assay type: biochemical; settings: His6-FGFR1 cytoplasmic domain, biotin-poly(GT), HTRF; read-out: FGFR1 kinase IC50
T2 construct: made in house; host or cells: Sf9 insect cells, baculovirus (pFastBacHis), by the same method as VEGFR2
Source text: This assay is used to determine inhibition of a test substance on tyrosine kinase activity. DNA coding for the cytoplasmic domain of VEGFR2 is obtained by total cDNA synthesis (Edwards M, International Biotechnology Lab 5(3), 19-25, 1987) or by cloning. Expression in an appropriate expression system can produce a polypeptide with tyrosine kinase activity. […] For VEGFR2 (GenBank Accession No. L04947), the 1.7 kb DNA fragment described by Terman et al. (Oncogene, 6(9), 1677-1683, 1991), coding for the cytoplasmic domain, beginning with lysine 791 and including the termination codon, was isolated from a human placental cDNA library (purchased from Clontech Laboratories, Inc.) and cloned in a Baculovirus expression vector (pFastBacHis, purchased from GIBCO BRL). The recombinant construct was transfected into insect cells (Spondoptea frugiperda9 (Sf9)) to prepare a recombinant Baculovirus. (Instructions for preparation and use of recombinant Baculovirus may be found in standard texts, such as “Bac-To-Bac Baculovirus Expression System” (GIBCO BRL).) The cytoplasmic fragment starting from lysine 398 (FGFR1, GenBank Accession No. X52833), the cytoplasmic fragment starting from lysine 558 (PDGFRβ, GenBank Accession No. M21616) or the cytoplasmic fragment starting from lysine 974 (HGFR, GenBank Accession No. J02958) may be cloned and expressed by the same method for use in assays for other tyrosine kinases. EGFR was purchased from Sigma Co. (Product No. E-2645).
For expression of the VEGFR2 tyrosine kinase, Sf9 cells were infected with the VEGFR2 recombinant virus and collected after 48 hours. The collected cells were rinsed with ice-cooled phosphate buffered saline (PBS) and then resuspended using 20 ml of ice-cooled Lysis Buffer (50 mM Tris-HCl (pH 8.5), 5 mM 2-mercaptoethanol, 100 mM KCl, 1 mM phenylmethylsulfonyl fluoride, 1% (v/v) NP-40) per 1.5×10^8 cells. The suspension was centrifuged at 12,000 rpm for 30 minutes at 4° C. and the supernatant was obtained. The supernatant was added to a Ni-NTA agarose column (3 ml, purchased from Qiagen) equilibrated with Buffer A {20 mM Tris-HCl (pH 8.5), 5 mM 2-mercaptoethanol, 500 mM KCl, 20 mM imidazole, 10% (v/v) glycerol}. The column was washed with 30 ml of Buffer A, and then with 6 ml of Buffer B {20 mM Tris-HCl (pH 8.5), 5 mM 2-mercaptoethanol, 1M KCl, 10% (v/v) glycerol}, and finally with 6 ml of Buffer A. After washing, it was eluted with 6 ml of Buffer C {20 mM Tris-HCl (pH 8.5), 5 mM 2-mercaptoethanol, 100 mM KCl, 100 mM imidazole, 10% (v/v) glycerol}. The eluate was placed on a dialysis membrane (purchased from Spectrum Laboratories) and dialyzed with a dialysis buffer {20 mM Tris-HCl (pH 7.5), 10% (v/v) glycerol, 1 mM dithiothreitol, 0.1 mM Na3VO4, 0.1 mM EGTA}. After dialysis, it was supplied for SDS-electrophoresis, and the recombinant protein (His6-VEGFR2, cytoplasmic domain of VEGFR2 fused with 6 histidine residues at the N-terminus) detected at a molecular weight of approximately 100 kDa with Coumassie Brilliant Blue staining was assayed using BSA (bovine serum albumin, purchased from Sigma Co.) as the standard substance, and stored at −80° C. until use. Using the same method for the cytoplasmic domains of FGFR1, PDGFRβ and HGFR yielded respective recombinant proteins fused with 6 histidine residues at the N-terminal (His6-FGFR1, His6-PDGFRβ or His6-HGFR).
The tyrosine kinase reaction was conducted as follows. In the case of VEGFR2, for example, 10 μl of a kinase reaction solution {200 mM Hepes (pH 7.4), 80 mM MgCl2, 16 mM MnCl2, 2 mM Na3VO4}, 250 ng of biotin-bound poly(Glu4:Tyr1) (biotin-poly(GT), purchased from CIS Diagnostics Co.) (6 μl of a 15-fold dilution with distilled water), 15 ng of His6-VEGFR2 (10 μl of a 240-fold dilution with 0.4% BSA solution) and the test substance dissolved in dimethyl sulfoxide (4 μl of a 100-fold dilution with 0.1% BSA solution) were added into each well of a 96-well round-bottom plate (NUNC Co., Product No. 163320), to a total of 30 μl. […]

T2 sequence (P11362 398-822 limits assumed): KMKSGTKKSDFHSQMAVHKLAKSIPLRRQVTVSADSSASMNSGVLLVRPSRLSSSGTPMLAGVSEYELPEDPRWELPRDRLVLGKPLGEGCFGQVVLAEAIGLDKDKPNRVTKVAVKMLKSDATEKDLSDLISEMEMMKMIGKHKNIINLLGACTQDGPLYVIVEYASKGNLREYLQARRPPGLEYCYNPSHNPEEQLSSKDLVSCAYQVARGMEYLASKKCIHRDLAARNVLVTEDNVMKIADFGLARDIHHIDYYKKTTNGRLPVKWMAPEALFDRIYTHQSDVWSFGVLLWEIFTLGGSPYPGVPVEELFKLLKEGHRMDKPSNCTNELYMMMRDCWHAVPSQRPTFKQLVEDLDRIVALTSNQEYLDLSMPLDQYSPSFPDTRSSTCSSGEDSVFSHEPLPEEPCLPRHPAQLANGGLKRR
T1 sequence (P35968 786-1356 limits assumed): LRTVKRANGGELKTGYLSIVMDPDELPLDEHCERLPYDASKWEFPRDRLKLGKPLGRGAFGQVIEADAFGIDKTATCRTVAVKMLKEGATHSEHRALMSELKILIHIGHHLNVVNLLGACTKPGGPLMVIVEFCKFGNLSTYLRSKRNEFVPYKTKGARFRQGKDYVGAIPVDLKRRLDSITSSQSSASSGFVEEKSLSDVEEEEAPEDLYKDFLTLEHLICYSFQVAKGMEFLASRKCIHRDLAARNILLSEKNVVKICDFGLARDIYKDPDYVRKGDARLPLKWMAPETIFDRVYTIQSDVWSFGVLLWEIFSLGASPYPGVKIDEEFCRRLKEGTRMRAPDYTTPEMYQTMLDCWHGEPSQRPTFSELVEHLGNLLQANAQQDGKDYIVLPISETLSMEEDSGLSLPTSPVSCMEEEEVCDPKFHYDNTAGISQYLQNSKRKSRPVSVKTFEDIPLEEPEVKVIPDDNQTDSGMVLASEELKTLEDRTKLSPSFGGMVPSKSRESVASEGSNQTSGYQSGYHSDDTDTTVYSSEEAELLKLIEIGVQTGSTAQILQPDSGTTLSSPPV

| Molecule | IC50 (VEGFR2) | IC50 (FGFR1) |
| --- | --- | --- |
| O=C(Nc1cc(Oc2ccc3c(ccn3C(=O)NC3CC3)c2)ccn1)N1CCCC1 [Example 88, N1-Cyclopropyl-5-(2-((pyrrolidin-1-ylcarbonyl)amino)-4-pyridyl)oxy-1H-1-indolecarboxamide] | 14 nM | 24 nM |
| CNC(=O)Nc1cc(Oc2ccc3c(ccn3C(=O)NC)c2)ccn1 [Example 116, N1-Methyl-5-(2-((methylamino)carbonyl)amino-4-pyridyl)oxy-1H-1-indolecarboxamide] | 14 nM | 87 nM |
| CCN(CC)C(=O)Nc1cc(Oc2ccc3c(ccn3C(=O)NC)c2)ccn1 [Example 119, N1-Methyl-5-(2-((diethylamino)carbonyl)amino-4-pyridyl)oxy-1H-1-indolecarboxamide] | 21 nM | 120 nM |
| C#CCNC(=O)n1ccc2cc(Oc3ccnc(NC(=O)N4CCCC4)c3)ccc21 [Example 139, N1-(2-Propynyl)-5-(2-((pyrrolidin-1-yl)carbonyl)amino-4-pyridyl)oxy-1H-1-indolecarboxamide] | 6.3 nM | 190 nM |
| O=C(Nc1cc(Oc2ccc3c(ccn3C(=O)NC3CC3)c2)ccn1)N1CCC1 [Example 208, N1-Cyclopropyl-5-(2-(azetidin-1-ylcarbonyl)amino-4-pyridyl)oxy-1H-1-indolecarboxamide] | 7.7 nM | 6.8 nM |
| CNC(=O)n1ccc2cc(Oc3ccnc(NC(=O)N4CCC(N5CCOCC5)CC4)c3)ccc21 [Example 209, N1-Methyl-5-(2-(((4-(morpholin-4-yl)piperidin-1-yl)carbonyl)amino)pyridin-4-yloxy)-1H-1-indolecarboxamide] | 17 nM | 29 nM |
| CNC(=O)n1ccc2cc(Oc3ccnc(NC(=O)N4CCC(N5CCC5)CC4)c3)ccc21 [Example 210, N1-Methyl-5-(2-(((4-(azetidin-1-yl)piperidin-1-yl)carbonyl)amino)pyridin-4-yloxy)-1H-1-indolecarboxamide] | 8.1 nM | 40 nM |
| CCN(CC)C1CCN(C(=O)Nc2cc(Oc3ccc4c(ccn4C(=O)NC)c3)ccn2)CC1 [Example 211, N1-Methyl-5-(2-(((4-(diethylamino)piperidin-1-yl)carbonyl)amino)pyridin-4-yloxy)-1H-1-indolecarboxamide] | 45 nM | 36 nM |
| CNC(=O)n1ccc2cc(Oc3ccnc(NC(=O)N4CCC(N5CCC(O)CC5)CC4)c3)ccc21 [Example 212, N1-Methyl-5-(2-(((4-(4-hydroxypiperidin-1-yl)piperidin-1-yl)carbonyl)amino)pyridin-4-yloxy)-1H-1-indolecarboxamide] | 8.6 nM | 19 nM |
| CCCNC(=O)n1ccc2cc(Oc3ccnc(NC(=O)N4CCCC4)c3)ccc21 [Example 213, N1-Propyl-5-(2-(pyrrolidin-1-ylcarbonyl)amino-4-pyridyl)oxy-1H-1-indolecarboxamide] | 10 nM | 330 nM |

Molecules with a lower IC50 (VEGFR2), results first:

| IC50 (VEGFR2) | IC50 (FGFR1) | Molecule |
| --- | --- | --- |
| 4.6 nM | 12 nM | CCNC(=O)n1ccc2cc(Oc3ccnc(NC(=O)N4CCC4)c3)ccc21 [Example 207, N1-Ethyl-5-(2-(azetidin-1-ylcarbonyl)amino-4-pyridyl)oxy-1H-1-indolecarboxamide] |
| 4.5 nM | 4.1 nM | N1-Methyl-5-(2-((4-(2-hydroxy-2-methylpropionyl)piperazin-1-yl)carbonyl)amino-4-pyridyl)oxy-1H-indolecarboxamide [Example 28] |
| 4.1 nM | 3.5 nM | CNC(=O)n1ccc2cc(Oc3ccnc(NC(=O)N4CCC4)c3)ccc21 [Example 206, N1-Methyl-5-(2-(azetidin-1-ylcarbonyl)amino-4-pyridyl)oxy-1H-1-indolecarboxamide] |
| 3.9 nM | 19 nM | CNC(=O)n1cc(Cl)c2cc(Oc3ccnc(NC(=O)N4CCC(O)CC4)c3)ccc21 [Example 104, N1-Methyl-3-chloro-5-(2-((4-hydroxypiperidino)carbonyl)amino-4-pyridyl)oxy-1H-1-indolecarboxamide] |
